# Results: patent publication US5571799A, “(2'-5') oligoadenylate analogues useful as inhibitors of host-v5.-graft response” (Basco, Ltd., priority 1994, dated 1996)
# How the values were obtained:
# [1] = test system: T-lymphocytes (murine splenocytes) stimulated with Concanavalin A; assay: In vitro blast-transformation of murine lymphocytes, Con A (T-lymphocyte mitogen), [3H]-thymidine; type: cell-based, mouse (CBA); conditions: for DNA synthesis at [^3 H]-thymidine [incorporated counts/min.]: Con A 5 μg/ml
# Text: The immune reactions in an organism begins with the division of lymphocytes. In vitro investigation of the lymphocyte blast-transformationreaction under the influence of mitogens makes it possible to use this model system to select chemically synthesized 2'-5'A3 analogues which suppress division of lymphocytes. Using Concanavalin A and lipopolysaccharide as mitogens, the effect of analogues on the division of T- and β-lymphocytes may be investigated.
# CBA mice 8-10 weeks old were used for these experiments. A suspension of mouse splenocytes were obtained by gently teasing spleens with forceps. […] Cultures were maintained in 5% CO2 at 37° C. One μCi of ^3 H-thymidine (Isotop®) was added to each well 4 hours before the end of the incubation period. Incorporation of ^3 H-thymidine into cellular DNA was determined by liquid scintillation counting using standard techniques. Oligoadenylate was added to the medium at the beginning of culturing to achieve the final concentration.
# (Con A being a mitogen for T-lymphocytes and LPS being a mitogen for β-lymphocytes).
# [2] = test system: natural compound 2'-5'A3 in blood plasma and blood cells; assay: Duration of activity in the blood of rabbits (radioimmune and fluoroimmune detection); type: in vivo; conditions: 10 min after one injection, 10 μg/kg, rabbit
# Text: Duration of (2'-5')A2 Ar-epoxy Activity in the Blood of Rabbits
# In order to study (2'-5')A2 Ar-epoxy pharmacodynamics, the radioimmune and fluoroimmune techniques were developed for its detection in tissue.
# T-killers = assay: Immune system of monkeys: T-killers, flow cytofluorografic analysis; type: in vivo, Macaque Rh. monkeys
# Description: (§1) The experiments were performed on 4 year-old Macaque Rh. monkeys. The levels of the principal subpopulations of T-lymphocytes, IgA, IgG, IgM and the amount of α- and γ-interferon and interleukin II after administration (2'-5')olygoadenylate and its analogies at the concentration of 50 and 25 μg/kg of the body weight was investigated.
# FLOW CYTOFLUOROGRAFIC ANALYSIS OF LYMPHOCYTE SUBSETS
# Blood samples (100 μl of whole blood) were placed into a 12×17 tube. To these cells 20 μl of purified monoclonal antibodies were added with specificity for human cytotoxic/suppressor cells anti-Leu-2a (CD8), human helper/inducer anti-Leu-3a (CD4) and FITC conjugated monoclonal antibodies with specificity for natural killer cells-anti-Leu11c (CD16) (Becton Dickinson, San Jose). After 30 minutes incubation on ice, the cells were washed once and 20 μl of goat-antimouse chain phycoerythrin (Sigma P1286) conjugate were added to the tube with anti-Leu-2a and anti-Leu-3a monoclonal antibodies.
# After erythrocyte lysing with FACS lysing solution (Becton Dickinson, San Jose) the cells were analyzed on FACScan flow cytometer (Becton Dickinson, San Jose) with scatter gate set on lymphocyte fraction.
# IgG, IgA, IgM [3] = assay: Immune system of monkeys: serum immunoglobulins by radial immunodiffusion; type: in vivo, Macaque Rh. monkeys
# Description: as §1, with “Immunosuppressive activity of the prototype 2'-5'A3 and two analogues (2'-5')A2 Ar-epoxy and (2'-5')A2 A^l-epoxy were investigated in monkeys. The experiments” for “The experiments”
# IMMUNOGLOBULIN DETERMINATION
# (§2) Serum levels of IgG, IgA, IgM were determined by radial immunodiffusion using antisera against human immunoglobulin A, M, G. The amount of interferon and interleukine-II were determined by the method of Lopez-Botet M. et al., 1982.
# IgG, IgA, IgM [4] = assay: Immunoglobulins in monkeys after kidney transplantation; type: in vivo, Macaque Rh. monkeys; conditions: 50 μg/kg IV; for IgA: 2 days pre-op. 0.4; for IgM: 2 days pre-op. 0.8; for IgG: 2 days pre-op. 13
# Description: as §2
# The experiments were performed on 4 year-old Macaque Rh. monkeys. Each cohort consisted of 3 animals. […] The results of the experiments were evaluated clinically: by the presence or absence of urination from the ureterocutaneostoma.
# During our experiments we have divided monkeys into two groups, three monkeys to each group. For the first group (2'-5')A2 Ar-epoxy was administered intravenously at concentration of 50 μg/kg two days before the operation and at the second, sixth, and twelfth day after the operation and then every sixth day. […] After transplantation kidney functions were restored within 10 hours.
# [5] = single IV 25 μg/kg, day 0 (baseline)
# [6] = single IV 50 μg/kg, day 0 (baseline)
substance,measurement,setting,value
"Adenylyl (2'-5')adenylyl (2'-5')-9-(2,3-anhydro-β-D-ribofuranosyl) adenine disodium salt [(2'-5')A2 Ar-epoxy]",DNA synthesis at [^3 H]-thymidine [incorporated counts/min.],"[1]; 5 × 10^-6 M, control 22,296","16,399 counts/min."
same,"inhibition of lymphocyte blast-transformation, in words","[1]; Con A, T-lymphocytes",suppresses the T-lymphocyte division to a greater extent
same,DNA synthesis at [^3 H]-thymidine [incorporated counts/min.],"[1]; Table 4, 1 × 10^-5 M, control 5,428","4,172 counts/min."
same,DNA synthesis at [^3 H]-thymidine [incorporated counts/min.],"[1]; Table 4, 5 × 10^-6 M, control 5,428","1,733 counts/min."
same,DNA synthesis at [^3 H]-thymidine [incorporated counts/min.],"[1]; Table 4, 5 × 10^-7 M, control 5,428","3,865 counts/min."
same,DNA synthesis at [^3 H]-thymidine [incorporated counts/min.],"[1]; Table 4, 5 × 10^-8 M, control 5,428","5,383 counts/min."
same,DNA synthesis at [^3 H]-thymidine [incorporated counts/min.],"[1]; Table 4, 5 × 10^-9 M, control 5,428","1,599 counts/min."
same,DNA synthesis at [^3 H]-thymidine [incorporated counts/min.],"[1]; Table 4, 5 × 10^-10 M, control 5,428",777 counts/min.
same,DNA synthesis at [^3 H]-thymidine [incorporated counts/min.],"[1]; Table 4, 5 × 10^-11 M, control 5,428","5,271 counts/min."
same,DNA synthesis at [^3 H]-thymidine [incorporated counts/min.],"[1]; Table 5, 1 × 10^-5 M, control 5,108","2,960 counts/min."
same,DNA synthesis at [^3 H]-thymidine [incorporated counts/min.],"[1]; Table 5, 5 × 10^-6 M, control 5,108","4,732 counts/min."
same,DNA synthesis at [^3 H]-thymidine [incorporated counts/min.],"[1]; Table 5, 5 × 10^-7 M, control 5,108","2,237 counts/min."
same,DNA synthesis at [^3 H]-thymidine [incorporated counts/min.],"[1]; Table 5, 5 × 10^-8 M, control 5,108","1,355 counts/min."
same,DNA synthesis at [^3 H]-thymidine [incorporated counts/min.],"[1]; Table 5, 5 × 10^-9 M, control 5,108","6,915 counts/min."
same,DNA synthesis at [^3 H]-thymidine [incorporated counts/min.],"[1]; Table 5, 5 × 10^-10 M, control 5,108","1,425 counts/min."
same,decrease of the level of natural compounds in blood plasma,[2],10 fold
same,increase of concentration of natural compounds in blood cells,[2],10 fold
same,T-killers,T-killers; [5],9.9%
same,T-killers,"T-killers; single IV 25 μg/kg, day 1",12%
same,T-killers,"T-killers; single IV 25 μg/kg, day 2",8%
same,T-killers,"T-killers; single IV 25 μg/kg, day 4",4%
same,T-killers,"T-killers; single IV 25 μg/kg, day 8",4%
same,T-killers,"T-killers; single IV 25 μg/kg, day 12",4%
same,T-killers,"T-killers; single IV 25 μg/kg, day 21",6.4%
same,T-killers,T-killers; [6],12%
same,T-killers,"T-killers; single IV 50 μg/kg, day 1",9%
same,T-killers,"T-killers; single IV 50 μg/kg, day 2",7%
same,T-killers,"T-killers; single IV 50 μg/kg, day 4",1.5%
same,T-killers,"T-killers; single IV 50 μg/kg, day 8",4.4%
same,T-killers,"T-killers; single IV 50 μg/kg, day 12",9%
same,T-killers,"T-killers; single IV 50 μg/kg, day 21",19.3%
same,IgA,"IgG, IgA, IgM [3]; [5]",2.8 g/L
same,IgG,"IgG, IgA, IgM [3]; [5]",7.5 g/L
same,IgM,"IgG, IgA, IgM [3]; [5]",0.5 g/L
same,IgA,"IgG, IgA, IgM [3]; single IV 25 μg/kg, day 1",2.0 g/L
same,IgG,"IgG, IgA, IgM [3]; single IV 25 μg/kg, day 1",7.4 g/L
same,IgM,"IgG, IgA, IgM [3]; single IV 25 μg/kg, day 1",0.6 g/L
same,IgA,"IgG, IgA, IgM [3]; single IV 25 μg/kg, day 2",1.1 g/L
same,IgG,"IgG, IgA, IgM [3]; single IV 25 μg/kg, day 2",5.2 g/L
same,IgM,"IgG, IgA, IgM [3]; single IV 25 μg/kg, day 2",1.0 g/L
same,IgA,"IgG, IgA, IgM [3]; single IV 25 μg/kg, day 8",0.53 g/L
same,IgG,"IgG, IgA, IgM [3]; single IV 25 μg/kg, day 8",14.5 g/L
same,IgM,"IgG, IgA, IgM [3]; single IV 25 μg/kg, day 8",1.41 g/L
same,IgA,"IgG, IgA, IgM [3]; single IV 25 μg/kg, day 21",0.38 g/L
same,IgG,"IgG, IgA, IgM [3]; single IV 25 μg/kg, day 21",14.48 g/L
same,IgM,"IgG, IgA, IgM [3]; single IV 25 μg/kg, day 21",1.2 g/L
same,IgA,"IgG, IgA, IgM [3]; [6]",2.8 g/L
same,IgG,"IgG, IgA, IgM [3]; [6]",9.6 g/L
same,IgM,"IgG, IgA, IgM [3]; [6]",0.6 g/L
same,IgA,"IgG, IgA, IgM [3]; single IV 50 μg/kg, day 1",2.7 g/L
same,IgG,"IgG, IgA, IgM [3]; single IV 50 μg/kg, day 1",7.8 g/L
same,IgM,"IgG, IgA, IgM [3]; single IV 50 μg/kg, day 1",0.5 g/L
same,IgA,"IgG, IgA, IgM [3]; single IV 50 μg/kg, day 2",0.8 g/L
same,IgG,"IgG, IgA, IgM [3]; single IV 50 μg/kg, day 2",15.0 g/L
same,IgM,"IgG, IgA, IgM [3]; single IV 50 μg/kg, day 2",1.1 g/L
same,IgA,"IgG, IgA, IgM [3]; single IV 50 μg/kg, day 8",0.9 g/L
same,IgG,"IgG, IgA, IgM [3]; single IV 50 μg/kg, day 8",14.8 g/L
same,IgM,"IgG, IgA, IgM [3]; single IV 50 μg/kg, day 8",0.9 g/L
same,IgA,"IgG, IgA, IgM [3]; single IV 50 μg/kg, day 21",0.38 g/L
same,IgG,"IgG, IgA, IgM [3]; single IV 50 μg/kg, day 21",13.2 g/L
same,IgM,"IgG, IgA, IgM [3]; single IV 50 μg/kg, day 21",0.78 g/L
same,IgA,"IgG, IgA, IgM [4]; day 5 post-op.",2.07 g/L
same,IgM,"IgG, IgA, IgM [4]; day 5 post-op.",0.75 g/L
same,IgG,"IgG, IgA, IgM [4]; day 5 post-op.",12.2 g/L
same,IgA,"IgG, IgA, IgM [4]; day 8 post-op.",2.5 g/L
same,IgM,"IgG, IgA, IgM [4]; day 8 post-op.",0.86 g/L
same,IgG,"IgG, IgA, IgM [4]; day 8 post-op.",12.75 g/L
